# From US9447134B2 (priority 2012, dated 2016)
# Columns and labels:
# [1] = target: B. anthracis IMPDH (Bacillus anthracis, UniProt A0A6L8P2U9); assay: biochemical
# [2] = target: F. tularensis IMPDH (Francisella tularensis, UniProt Q5NFC2); assay: biochemical
# [3] = target: T1, CpIMPDH (Cryptosporidium parvum, UniProt Q8T6T2); conditions: read-out: IC50 against CpIMPDH
# T1 sequence (Q8T6T2 1-400): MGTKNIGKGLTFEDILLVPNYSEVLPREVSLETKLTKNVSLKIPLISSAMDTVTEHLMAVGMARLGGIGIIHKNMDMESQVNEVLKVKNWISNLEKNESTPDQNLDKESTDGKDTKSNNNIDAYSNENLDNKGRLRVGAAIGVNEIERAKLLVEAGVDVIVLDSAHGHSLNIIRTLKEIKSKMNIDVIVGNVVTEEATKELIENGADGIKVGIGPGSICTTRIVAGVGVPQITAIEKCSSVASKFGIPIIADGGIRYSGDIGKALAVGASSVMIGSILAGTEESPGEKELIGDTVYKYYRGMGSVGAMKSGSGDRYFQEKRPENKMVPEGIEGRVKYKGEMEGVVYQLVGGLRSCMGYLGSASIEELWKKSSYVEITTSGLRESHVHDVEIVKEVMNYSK
# [4] = test system: Bu. mallei IMPDH; type: biochemical, Burkholderia mallei; conditions: FIG. 24
# [5] = target: S. pyogenes IMPDH (Streptococcus pyogenes, UniProt P0C0H6); assay: biochemical
# [6] = test system: Caco-2 cells; assay: Uptake in Caco-2 cells; type: in vitro ADME, human; conditions: extracellular concentration 10 μM
# Procedure: FIG. 33 tabulates urea CpIMPDH inhibitor permeability and uptake in Caco-2 TC7 cells. All compounds at 10 μM, pH 7.4 on both sides. Solid recovery >80% in all cases. a. Approximate intracellular concentration, assuming 4 μL of water for 1 mg of cellular protein.
# To further investigate the relationship between intestinal accumulation and antiparasitic activity, we measured the uptake of the CpIMPDH inhibitors in Caco-2 cells, a widely used model of human intestinal epithelial cells. Uptake varied over a range of 2000-fold among the eight CpIMPDH inhibitors (FIG. 33). […] All of the other compounds accumulated intracellular concentrations in excess of the extracellular concentration. […] The concentrations of all the other compounds were lower by at least a factor of 10, but nevertheless exceeded the concentrations required to inhibit CpIMPDH.
# [7] = Plasma pharmacokinetics in C57BL/6 mice; type: in vivo, mouse
# Procedure: FIG. 32 tabulates the pharmacokinetic parameters for urea CpIMPDH inhibitors. C57BL/6 mice received a single dose of 250 mg/kg in 10% DMSO/corn oil by oral gavage.
# Given the limited efficacy of current treatments, the pharmacokinetic and physicochemical properties required for in vivo efficacy have not been established. […] P82 is the primary product of P83 metabolism, so the concentration of P82 in plasma was also measured during P83 treatment.
# PK was assessed at either the Stony Brook Translation Experimental Laboratory Therapeutics (Stony Brook, NY) or GVK Biosciences (Hyderabad, India).
# [8] = test system: Caco-2 cells; assay: Efflux from preloaded Caco-2 cells; type: in vitro ADME, human; conditions: preincubated with 100 μM
# Procedure: FIG. 37 depicts the amount of P131 remaining in Caco-2 cells after the cells were loaded with different concentrations of P131 for 2 h at 37° C. in HBSS. The efflux tin is −1 h for loading at 100 μM and 2 h for 20 μM and 5 μM.
# We preloaded Caco-2 cells with 5, 20 or 100 μM P131, then measured efflux (FIG. 37). The initial intracellular concentrations of P131 were dose dependent and scaled with the extracellular concentration for the 5 and 20 μM preincubation conditions. […] P131 efflux was very slow under all three conditions, with tin of 1-2 h.
# [9] = target: A. baumannii IMPDH (Acinetobacter baumannii, UniProt D0CF46); assay: biochemical
# [10] = Tissue distribution of P131 in mice; conditions: 24 h after a single 83 mg/kg oral dose
# [11] = test system: gut microbiota; conditions: 250 mg/kg daily, 7 days, compared with vehicle
# [12] = test system: C. parvum; conditions: IL-12 knockout mice, 250 mg/kg daily oral gavage
# B. anthracis IMPDH, sequence (A0A6L8P2U9 1-487): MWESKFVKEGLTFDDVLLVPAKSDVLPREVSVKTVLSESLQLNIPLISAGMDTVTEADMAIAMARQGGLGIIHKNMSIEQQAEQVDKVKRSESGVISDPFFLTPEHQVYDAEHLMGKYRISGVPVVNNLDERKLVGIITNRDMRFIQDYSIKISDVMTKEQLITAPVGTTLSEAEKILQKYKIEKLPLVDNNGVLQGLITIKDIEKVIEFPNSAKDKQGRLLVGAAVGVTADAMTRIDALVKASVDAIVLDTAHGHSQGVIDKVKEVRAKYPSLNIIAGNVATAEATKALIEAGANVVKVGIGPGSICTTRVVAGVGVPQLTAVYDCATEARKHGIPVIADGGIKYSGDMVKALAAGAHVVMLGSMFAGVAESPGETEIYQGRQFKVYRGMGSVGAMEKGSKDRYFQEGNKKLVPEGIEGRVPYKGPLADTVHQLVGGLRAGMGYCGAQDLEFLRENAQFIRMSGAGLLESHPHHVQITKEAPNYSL
# F. tularensis IMPDH, sequence (Q5NFC2 1-486): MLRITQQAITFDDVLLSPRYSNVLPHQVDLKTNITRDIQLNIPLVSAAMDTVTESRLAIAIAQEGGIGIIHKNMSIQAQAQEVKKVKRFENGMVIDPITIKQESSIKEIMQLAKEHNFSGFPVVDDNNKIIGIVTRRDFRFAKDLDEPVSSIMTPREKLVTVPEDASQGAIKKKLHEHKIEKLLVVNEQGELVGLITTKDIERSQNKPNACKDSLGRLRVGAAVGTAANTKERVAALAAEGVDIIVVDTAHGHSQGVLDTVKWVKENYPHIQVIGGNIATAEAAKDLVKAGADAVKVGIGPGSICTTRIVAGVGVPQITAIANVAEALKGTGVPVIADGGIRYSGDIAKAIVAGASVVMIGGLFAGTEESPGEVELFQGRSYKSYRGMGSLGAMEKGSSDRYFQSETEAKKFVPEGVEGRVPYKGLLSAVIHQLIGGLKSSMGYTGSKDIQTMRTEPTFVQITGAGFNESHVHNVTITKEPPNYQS
# A. baumannii IMPDH, sequence (D0CF46 entry or part of it): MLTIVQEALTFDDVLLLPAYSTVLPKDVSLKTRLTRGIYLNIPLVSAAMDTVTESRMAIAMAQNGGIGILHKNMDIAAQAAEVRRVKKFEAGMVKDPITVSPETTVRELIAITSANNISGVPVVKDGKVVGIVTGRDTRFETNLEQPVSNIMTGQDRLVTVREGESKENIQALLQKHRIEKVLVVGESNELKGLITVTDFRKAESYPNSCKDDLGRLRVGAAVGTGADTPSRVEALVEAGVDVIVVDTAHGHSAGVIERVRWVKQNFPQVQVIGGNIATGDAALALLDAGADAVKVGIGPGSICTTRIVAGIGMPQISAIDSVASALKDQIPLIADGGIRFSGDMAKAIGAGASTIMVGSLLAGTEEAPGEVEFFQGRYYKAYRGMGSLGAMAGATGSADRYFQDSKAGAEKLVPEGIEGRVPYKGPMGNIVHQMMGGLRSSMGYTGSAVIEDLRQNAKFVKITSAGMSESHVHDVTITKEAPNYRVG
# S. pyogenes IMPDH, sequence (P0C0H6 whole entry): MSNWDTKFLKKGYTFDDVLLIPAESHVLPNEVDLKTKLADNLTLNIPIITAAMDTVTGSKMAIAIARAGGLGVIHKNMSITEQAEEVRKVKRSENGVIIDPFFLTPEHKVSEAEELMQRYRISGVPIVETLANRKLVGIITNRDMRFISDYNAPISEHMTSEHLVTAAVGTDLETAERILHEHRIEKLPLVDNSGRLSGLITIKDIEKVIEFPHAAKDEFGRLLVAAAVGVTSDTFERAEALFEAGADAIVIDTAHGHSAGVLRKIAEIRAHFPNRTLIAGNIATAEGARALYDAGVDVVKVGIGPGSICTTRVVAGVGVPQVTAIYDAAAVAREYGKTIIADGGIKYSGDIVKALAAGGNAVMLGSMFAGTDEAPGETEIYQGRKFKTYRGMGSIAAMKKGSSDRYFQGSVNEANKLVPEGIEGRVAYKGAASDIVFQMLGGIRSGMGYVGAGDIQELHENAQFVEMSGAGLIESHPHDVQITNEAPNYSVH
Compound,IC50 [1],IC50 [2],IC50 [3],IC50 [4],IC50 [5],uptake/accumulation in Caco-2 cells (in words) [6],"plasma half-life ([7]; 250 mg/kg single oral dose, C57BL/6 mice)","Cmax ([7]; 250 mg/kg single oral dose, C57BL/6 mice, read-out: maximal plasma concentration (Cmax))","plasma pharmacokinetic behavior / systemic distribution (in words) ([7]; mouse, in vivo)",cytotoxicity to Caco-2 cells [8],IC50 [9],intestine and feces concentration over IC50 for CpIMPDH inhibition [10],impact on fecal microbiota [11],"in vivo antiparasitic activity, fecal oocysts (in words) [12]"
"Cn1nc(CC(=O)Nc2ccc3oc4ccccc4c3c2)c2ccccc2c1=O [Compound D73, N-(dibenzo[b,d]furan-2-yl)-2-(3-methyl-4-oxo-3,4-dihydrophthalazin-1-yl)acetamide]",0.27 µM,0.06 µM,0.004 µM,0.1 µM,> 100 µM,,,,,,,,,
CC(=NOCCN)c1cccc(C(C)(C)NC(=O)Nc2ccc(Cl)c([N+](=O)[O-])c2)c1 [Compound P131],0.21 µM,,,,,millimolar concentrations,4 h,9 µM,poor systemic distribution,Some cytotoxicity,0.71 µM,more than 100 fold,no additional impact,anticryptosporidial activity
